Test results published in ChEMBL document CHEMBL4190187, “Discovery of pyrazolopyrimidine derivatives as novel inhibitors of ataxia telangiectasia and rad3 related protein (ATR)” (Bioorg Med Chem Lett, 2017).

Legend:
[1] = Apparent volume of distribution in mouse at 2 mg/kg, iv or 10 mg/kg, po; assay type: ADME, organism-based; conditions: in vivo, read-out: Vz
[2] = target: Activated CDC42 kinase 1 (Homo sapiens) (UniProt Q07912); assay: Inhibition of recombinant human ACK1 (1 to 389 residues) at 1 uM using EFPIYDFLPAKKK as substrate after 40 mins in presence of [gamma-33P]ATP by scintillation counting method
[3] = target: 5'-AMP-activated protein kinase catalytic subunit alpha-1 (Homo sapiens) (UniProt Q13131); assay: Inhibition of recombinant full-length human AMPKalpha1 at 1 uM using AMARAASAAALARRR as substrate after 40 mins in presence of [gamma-33P]ATP by scintillation counting method
Chain of 5'-AMP-activated protein kinase catalytic subunit alpha-1 (Homo sapiens) (Q13131 whole entry, looked up): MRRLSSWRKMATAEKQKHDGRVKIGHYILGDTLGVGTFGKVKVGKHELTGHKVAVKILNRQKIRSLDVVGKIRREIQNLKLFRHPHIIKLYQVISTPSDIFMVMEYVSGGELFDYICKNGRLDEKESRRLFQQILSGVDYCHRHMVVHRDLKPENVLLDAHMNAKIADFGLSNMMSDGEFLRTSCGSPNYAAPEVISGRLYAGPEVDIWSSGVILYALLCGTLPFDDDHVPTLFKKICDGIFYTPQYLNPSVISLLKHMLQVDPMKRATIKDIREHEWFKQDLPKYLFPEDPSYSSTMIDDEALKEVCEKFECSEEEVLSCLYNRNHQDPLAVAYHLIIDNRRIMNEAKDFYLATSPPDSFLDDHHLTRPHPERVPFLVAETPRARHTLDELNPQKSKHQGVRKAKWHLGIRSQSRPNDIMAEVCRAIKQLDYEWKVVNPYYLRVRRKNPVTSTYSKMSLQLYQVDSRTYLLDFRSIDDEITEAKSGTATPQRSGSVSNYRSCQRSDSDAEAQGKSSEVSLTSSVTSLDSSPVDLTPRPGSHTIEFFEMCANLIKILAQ

[4] = target: Serine/threonine-protein kinase A-Raf (Homo sapiens) (UniProt P10398); assay: Inhibition of recombinant human A-Raf (273 to end residues) at 1 uM using myelin basic protein as substrate after 40 mins in presence of [gamma-33P]ATP by scintillation counting method
[5] = target: Tyrosine-protein kinase ABL2 (Mus musculus) (UniProt Q4JIM5); assay: Inhibition of A562 insertion recombinant mouse ARG (27 to end residues) at 1 uM using EAIYAAPFAKKK as substrate after 40 mins in presence of [gamma-33P]ATP by scintillation counting method
Chain of Tyrosine-protein kinase ABL2 (Mus musculus) (Q4JIM5 whole entry): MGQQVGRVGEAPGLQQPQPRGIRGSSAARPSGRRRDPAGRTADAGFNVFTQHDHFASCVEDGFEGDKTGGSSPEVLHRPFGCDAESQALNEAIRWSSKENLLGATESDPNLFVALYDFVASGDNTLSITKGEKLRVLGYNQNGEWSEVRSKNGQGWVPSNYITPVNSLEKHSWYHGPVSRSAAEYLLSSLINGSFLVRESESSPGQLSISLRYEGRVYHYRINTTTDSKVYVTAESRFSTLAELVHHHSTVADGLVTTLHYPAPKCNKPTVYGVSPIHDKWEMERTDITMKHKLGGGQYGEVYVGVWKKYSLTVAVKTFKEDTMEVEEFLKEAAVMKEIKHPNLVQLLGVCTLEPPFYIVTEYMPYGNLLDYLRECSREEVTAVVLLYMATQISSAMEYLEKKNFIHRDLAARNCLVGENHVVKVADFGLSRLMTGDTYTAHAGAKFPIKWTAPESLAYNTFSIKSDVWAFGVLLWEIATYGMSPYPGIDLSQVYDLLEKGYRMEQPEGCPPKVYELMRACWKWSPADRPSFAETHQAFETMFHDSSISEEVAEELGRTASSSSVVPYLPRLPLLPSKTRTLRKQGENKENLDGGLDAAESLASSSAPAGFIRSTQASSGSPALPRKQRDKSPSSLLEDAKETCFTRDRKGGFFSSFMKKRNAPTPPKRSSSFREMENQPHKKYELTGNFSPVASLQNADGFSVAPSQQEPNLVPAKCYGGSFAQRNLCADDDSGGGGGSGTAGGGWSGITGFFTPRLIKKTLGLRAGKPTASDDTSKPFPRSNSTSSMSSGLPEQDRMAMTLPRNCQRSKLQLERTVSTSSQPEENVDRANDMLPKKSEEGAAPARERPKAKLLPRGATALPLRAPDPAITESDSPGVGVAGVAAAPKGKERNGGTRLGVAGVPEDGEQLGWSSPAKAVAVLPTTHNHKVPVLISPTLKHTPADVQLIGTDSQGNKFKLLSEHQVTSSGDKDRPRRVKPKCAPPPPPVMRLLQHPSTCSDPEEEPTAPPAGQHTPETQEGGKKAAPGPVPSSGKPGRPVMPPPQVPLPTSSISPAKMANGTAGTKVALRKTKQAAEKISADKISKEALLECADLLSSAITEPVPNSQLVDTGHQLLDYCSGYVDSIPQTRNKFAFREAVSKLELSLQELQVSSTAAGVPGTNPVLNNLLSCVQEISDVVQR

[6] = target: Tyrosine-protein kinase Blk (Homo sapiens) (UniProt P51451); assay: Inhibition of recombinant full-length human Blk at 1 uM using poly(Glu,Tyr) 4:1 as substrate after 40 mins in presence of [gamma-33P]ATP by scintillation counting method
Chain of Tyrosine-protein kinase Blk (Homo sapiens) (P51451 2-505 limits assumed): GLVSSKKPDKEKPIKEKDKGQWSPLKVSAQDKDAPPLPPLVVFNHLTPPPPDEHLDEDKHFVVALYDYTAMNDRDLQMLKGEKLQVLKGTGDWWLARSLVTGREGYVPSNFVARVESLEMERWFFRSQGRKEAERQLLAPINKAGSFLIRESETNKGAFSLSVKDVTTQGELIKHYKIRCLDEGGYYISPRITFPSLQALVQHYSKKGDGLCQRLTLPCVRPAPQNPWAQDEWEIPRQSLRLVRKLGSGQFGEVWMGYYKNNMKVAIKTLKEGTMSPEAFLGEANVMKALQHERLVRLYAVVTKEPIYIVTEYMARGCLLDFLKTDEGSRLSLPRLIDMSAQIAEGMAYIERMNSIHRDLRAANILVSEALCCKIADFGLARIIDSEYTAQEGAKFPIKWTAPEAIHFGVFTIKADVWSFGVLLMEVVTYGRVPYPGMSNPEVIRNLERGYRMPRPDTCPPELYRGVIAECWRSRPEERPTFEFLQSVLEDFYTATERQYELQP

[7] = target: Calcium/calmodulin-dependent protein kinase type 1B (Homo sapiens) (UniProt Q6P2M8); assay: Inhibition of recombinant full-length human CAMK1beta at 1 uM using KKLRRTLSFAEPG as substrate after 40 mins in presence of [gamma-33P]ATP by scintillation counting method
Chain of Calcium/calmodulin-dependent protein kinase type 1B (Homo sapiens) (Q6P2M8 whole entry): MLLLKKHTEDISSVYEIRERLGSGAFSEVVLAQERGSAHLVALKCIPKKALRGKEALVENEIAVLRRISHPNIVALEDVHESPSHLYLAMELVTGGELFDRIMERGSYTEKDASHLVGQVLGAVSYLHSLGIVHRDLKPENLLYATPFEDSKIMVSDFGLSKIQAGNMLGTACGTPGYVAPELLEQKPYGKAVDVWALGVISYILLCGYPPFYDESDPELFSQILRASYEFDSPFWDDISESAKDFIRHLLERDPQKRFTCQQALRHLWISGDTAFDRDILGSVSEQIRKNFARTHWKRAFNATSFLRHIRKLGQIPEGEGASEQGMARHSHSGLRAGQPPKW

[8] = test system: Mast/stem cell growth factor receptor Kit (Homo sapiens), P10721 [D816H]; assay: Inhibition of recombinant human cKit D816H mutant (544 to end residues) at 1 uM using GGMEDIYFEFMGGKKK as substrate after 40 mins in presence of [gamma-33P]ATP by scintillation counting method
[9] = target: Serine/threonine-protein kinase STK11 (Homo sapiens) (UniProt Q15831); assay: Inhibition of recombinant full-length human LKB1 at 1 uM using LSNLYHQGKFLQTFCGSPLYRRR as substrate after 40 mins in presence of [gamma-33P]ATP by scintillation counting method
[10] = target: Serine/threonine-protein kinase 10 (Homo sapiens) (UniProt O94804); assay: Inhibition of recombinant human LOK (1 to 348 residues) at 1 uM using RLGRDKYKTLRQIRQ as substrate after 40 mins in presence of [gamma-33P]ATP by scintillation counting method
Chain of Serine/threonine-protein kinase 10 (Homo sapiens) (O94804 whole entry, looked up, the tested form may be a part): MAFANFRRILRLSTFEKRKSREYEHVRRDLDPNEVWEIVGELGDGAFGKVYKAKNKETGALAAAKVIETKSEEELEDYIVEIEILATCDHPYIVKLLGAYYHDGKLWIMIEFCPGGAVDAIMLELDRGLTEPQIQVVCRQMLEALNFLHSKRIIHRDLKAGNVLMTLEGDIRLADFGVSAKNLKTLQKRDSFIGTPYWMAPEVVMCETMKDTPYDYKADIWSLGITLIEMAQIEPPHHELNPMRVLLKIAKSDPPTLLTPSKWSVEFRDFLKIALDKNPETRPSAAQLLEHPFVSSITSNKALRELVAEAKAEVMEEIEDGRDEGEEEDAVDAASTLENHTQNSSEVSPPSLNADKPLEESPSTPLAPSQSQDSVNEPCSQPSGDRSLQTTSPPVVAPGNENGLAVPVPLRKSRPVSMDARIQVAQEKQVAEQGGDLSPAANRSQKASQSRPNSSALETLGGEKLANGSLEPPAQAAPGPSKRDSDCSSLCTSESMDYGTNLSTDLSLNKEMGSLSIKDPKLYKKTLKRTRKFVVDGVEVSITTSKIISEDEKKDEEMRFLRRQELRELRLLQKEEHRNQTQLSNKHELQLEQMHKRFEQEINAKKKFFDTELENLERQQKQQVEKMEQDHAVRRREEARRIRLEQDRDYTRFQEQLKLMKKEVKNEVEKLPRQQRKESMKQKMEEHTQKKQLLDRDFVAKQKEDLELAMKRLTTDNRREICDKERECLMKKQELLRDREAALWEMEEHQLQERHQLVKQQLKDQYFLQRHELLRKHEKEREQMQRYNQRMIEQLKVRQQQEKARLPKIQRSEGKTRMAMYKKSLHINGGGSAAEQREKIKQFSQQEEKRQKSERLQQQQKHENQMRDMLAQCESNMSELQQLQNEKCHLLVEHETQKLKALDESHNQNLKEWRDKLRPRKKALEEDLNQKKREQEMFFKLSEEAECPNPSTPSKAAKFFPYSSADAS

[11] = target: Tyrosine-protein kinase Lyn (Mus musculus) (UniProt P25911); assay: Inhibition of recombinant full-length mouse Lyn at 1 uM using poly(Glu,Tyr) 4:1 as substrate after 40 mins in presence of [gamma-33P]ATP by scintillation counting method
[12] = target: Mitogen-activated protein kinase kinase kinase kinase 3 (Homo sapiens) (UniProt Q8IVH8); assay: Inhibition of recombinant human MAP4K3 (1 to 291 residues) at 1 uM using RRRFRPASPLRGPPK as substrate after 40 mins in presence of [gamma-33P]ATP by scintillation counting method
[13] = target: Serine/threonine-protein kinase Nek11 (Homo sapiens) (UniProt Q8NG66); assay: Inhibition of recombinant full-length human NEK11 at 1 uM using myelin basic protein as substrate after 40 mins in presence of [gamma-33P]ATP by scintillation counting method
Chain of Serine/threonine-protein kinase Nek11 (Homo sapiens) (Q8NG66 whole entry): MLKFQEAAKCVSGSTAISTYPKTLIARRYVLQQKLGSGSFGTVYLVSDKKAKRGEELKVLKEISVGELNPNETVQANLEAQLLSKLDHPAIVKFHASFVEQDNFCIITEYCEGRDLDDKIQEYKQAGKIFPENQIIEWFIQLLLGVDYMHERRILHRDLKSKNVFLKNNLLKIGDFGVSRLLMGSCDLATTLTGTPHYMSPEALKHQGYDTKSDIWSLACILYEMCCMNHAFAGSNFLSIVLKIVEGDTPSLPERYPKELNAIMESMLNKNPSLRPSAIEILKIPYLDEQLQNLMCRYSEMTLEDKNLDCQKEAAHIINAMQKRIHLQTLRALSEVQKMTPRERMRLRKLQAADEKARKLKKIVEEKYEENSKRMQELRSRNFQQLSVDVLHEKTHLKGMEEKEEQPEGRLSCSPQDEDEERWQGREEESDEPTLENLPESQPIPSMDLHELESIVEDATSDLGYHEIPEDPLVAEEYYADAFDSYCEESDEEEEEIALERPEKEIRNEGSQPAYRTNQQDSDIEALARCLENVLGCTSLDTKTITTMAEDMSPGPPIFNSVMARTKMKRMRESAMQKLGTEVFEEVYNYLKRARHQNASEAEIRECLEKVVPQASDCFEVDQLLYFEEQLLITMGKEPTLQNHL

[14] = target: PI3K p110 alpha/p85 alpha (Mus musculus) (UniProt P26450+P42337); assay: Inhibition of recombinant full-length mouse p110a E542K mutant/p85a at 1 uM using phosphatidylinositol 4,5-bisphosphate as substrate after 40 mins in presence of [gamma-33P]ATP by scintillation counting method; assay type: protein-complex assay
[15] = target: PI3-kinase p110-alpha/p85-alpha (Homo sapiens) (UniProt P27986+P42336); assay: Inhibition of recombinant full-length human p110a/p85a at 1 uM using phosphatidylinositol 4,5-bisphosphate as substrate after 40 mins in presence of [gamma-33P]ATP by scintillation counting method; assay type: protein-complex assay
[16] = target: PI3K p110 beta/p85 alpha (Homo sapiens) (UniProt P27986+P42338); assay: Inhibition of recombinant full-length human p110b/p85a at 1 uM using phosphatidylinositol 4,5-bisphosphate as substrate after 40 mins in presence of [gamma-33P]ATP by scintillation counting method; assay type: protein-complex assay
[17] = target: Phosphatidylinositol 4-phosphate 5-kinase type-1 alpha (Homo sapiens) (UniProt Q99755); assay: Inhibition of recombinant full-length human PIP5K1alpha at 1 uM using phosphatidylinositol 4-phosphate/phosphatidylserine as substrate after 40 mins in presence of [gamma-33P]ATP by scintillation counting method
Chain of Phosphatidylinositol 4-phosphate 5-kinase type-1 alpha (Homo sapiens) (Q99755 whole entry): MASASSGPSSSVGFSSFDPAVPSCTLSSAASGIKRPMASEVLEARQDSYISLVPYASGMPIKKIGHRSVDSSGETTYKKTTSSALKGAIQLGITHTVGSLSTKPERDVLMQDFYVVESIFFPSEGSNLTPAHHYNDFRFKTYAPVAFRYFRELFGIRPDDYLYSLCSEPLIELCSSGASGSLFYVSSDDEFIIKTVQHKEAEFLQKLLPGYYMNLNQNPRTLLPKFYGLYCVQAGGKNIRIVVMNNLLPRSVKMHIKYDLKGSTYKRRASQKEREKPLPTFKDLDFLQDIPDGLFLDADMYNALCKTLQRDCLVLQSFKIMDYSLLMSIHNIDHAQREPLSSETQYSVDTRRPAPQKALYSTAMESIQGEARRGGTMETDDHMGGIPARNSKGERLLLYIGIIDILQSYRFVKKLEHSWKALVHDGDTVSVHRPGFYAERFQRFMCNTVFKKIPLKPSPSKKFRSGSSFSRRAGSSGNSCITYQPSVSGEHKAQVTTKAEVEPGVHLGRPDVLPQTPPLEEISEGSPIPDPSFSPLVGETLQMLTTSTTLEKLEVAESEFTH

[18] = target: Serine/threonine-protein kinase PLK1 (Homo sapiens) (UniProt P53350); assay: Inhibition of recombinant full-length human Plk1 at 1 uM using casein as substrate after 40 mins in presence of [gamma-33P]ATP by scintillation counting method
[19] = test system: Proto-oncogene tyrosine-protein kinase receptor Ret (Homo sapiens), P07949 [V804L]; assay: Inhibition of recombinant human RET V804L mutant (658 to end residues) at 1 uM using KKKVSRSGLYRSPSMPENLNRPR as substrate after 40 mins in presence of [gamma-33P]ATP by scintillation counting method
[20] = target: Receptor-interacting serine/threonine-protein kinase 1 (Homo sapiens) (UniProt Q13546); assay: Inhibition of recombinant human RIPK1 (8 to 322 residues) at 1 uM using myelin basic protein as substrate after 120 mins in presence of [gamma-33P]ATP by scintillation counting method
[21] = target: Mitogen-activated protein kinase 13 (Homo sapiens) (UniProt O15264); assay: Inhibition of recombinant full-length human SAPK4 at 1 uM using myelin basic protein as substrate after 40 mins in presence of [gamma-33P]ATP by scintillation counting method
[22] = target: TGF-beta receptor type-1 (Homo sapiens) (UniProt P36897); assay: Inhibition of recombinant activated human TGFBR1 (200 to end residues) at 1 uM using casein as substrate after 40 mins in presence of [gamma-33P]ATP by scintillation counting method
[23] = target: NT-3 growth factor receptor (Homo sapiens) (UniProt Q16288); assay: Inhibition of recombinant human TrkC (510 to end residues) at 1 uM using GEEPLYWSFPAKKK as substrate after 40 mins in presence of [gamma-33P]ATP by scintillation counting method
[24] = target: Dual specificity protein kinase TTK (Homo sapiens) (UniProt P33981); assay: Inhibition of recombinant full-length human TTK at 1 uM using myelin basic protein as substrate after 40 mins in presence of [gamma-33P]ATP by scintillation counting method

SMILES: CS(=O)(=O)c1ccc(-n2nc(-c3cnc4[nH]ccc4c3)c3c(N)ncnc32)cc1
- Vd [1]: 2.15 L/kg
- inhibition [2]: 44%
- inhibition [3]: -9%
- inhibition [4]: -10%
- inhibition [5]: 69%
- inhibition [6]: 40%
- inhibition [7]: -5%
- inhibition [8]: 85%
- inhibition [9]: -5%
- inhibition [10]: -5%
- inhibition [11]: 45%
- inhibition [12]: 2%
- inhibition [13]: 19%
- inhibition [14]: 11%
- inhibition [15]: 6%
- inhibition [16]: 0%
- inhibition [17]: 2%
- inhibition [18]: -1%
- inhibition [19]: 20%
- inhibition [20]: 18%
- inhibition [21]: -5%
- inhibition [22]: 76%
- inhibition [23]: 2%
- inhibition [24]: -6%
